Results from ChEMBL document CHEMBL1127932, “6-isoxazolinyl and isoxazolidinyl substituted quinazolinones as angiotensin II receptor antagonists” (Bioorg Med Chem Lett, 1994).

Each molecule was assayed on Rattus norvegicus (assay: In vivo change in mean arterial blood pressure in conscious renin-dependent […] hypertensive rats at 1 mg/kg, p.o. after 2 hr). Conditions: route oral.
Format: functional

SMILES | Activity [mmHg]
CCCCc1nc2ccc([C@]3(C)C[C@H]4CCCN4O3)cc2c(=O)n1Cc1ccc(-c2ccccc2-c2nn[nH]n2)cc1 | -5.5

The molecules below were run on Rattus norvegicus (assay: In vivo change in mean arterial blood pressure in conscious renin-dependent […] hypertensive rats at 1 mg/kg, p.o. after 30 min). Conditions: route oral.
Format: functional

SMILES | Activity [mmHg]
CCCCc1nc2ccc([C@]3(C)C[C@H]4CCCN4O3)cc2c(=O)n1Cc1ccc(-c2ccccc2-c2nn[nH]n2)cc1 | -3

What follows are molecules tested against T1, Type-1 angiotensin II receptor (Bos taurus, UniProt P25104) (assay: In vitro Angiotensin II receptor antagonism in bovine adrenal cortex tissue.). Conditions: not given.
T1 sequence (P25104 whole entry): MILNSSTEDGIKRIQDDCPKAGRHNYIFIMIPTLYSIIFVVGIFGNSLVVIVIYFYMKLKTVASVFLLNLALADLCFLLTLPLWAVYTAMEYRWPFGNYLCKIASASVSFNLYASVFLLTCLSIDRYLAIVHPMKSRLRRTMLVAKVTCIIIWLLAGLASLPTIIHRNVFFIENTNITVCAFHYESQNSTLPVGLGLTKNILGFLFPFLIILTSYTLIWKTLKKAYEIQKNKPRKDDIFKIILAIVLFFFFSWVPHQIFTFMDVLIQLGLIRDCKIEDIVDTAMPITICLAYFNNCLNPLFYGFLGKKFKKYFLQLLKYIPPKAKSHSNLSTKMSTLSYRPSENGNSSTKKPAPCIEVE
Format: functional, tissue-based

IC50 [nM] | SMILES
70 | CCCCc1nc2ccc([C@@]3(C)C[C@H]4CCC(C)(C)N4O3)cc2c(=O)n1Cc1ccc(-c2ccccc2-c2nnn[nH]2)cc1
69 | CCCCc1nc2ccc(C3(C(=O)N4CCCC4)C[C@H]4CCCN4O3)cc2c(=O)n1Cc1ccc(-c2ccccc2-c2nnn[nH]2)cc1 (stereo not given in full)
410 | CCCCc1nc2ccc(C3CC(c4cc(C)cs4)=NO3)cc2c(=O)n1Cc1ccc(-c2ccccc2-c2nnn[nH]2)cc1 (stereo not given)
61 | CCCCc1nc2ccc(C3(C(=O)N4CCCCC4)C[C@H]4CCCN4O3)cc2c(=O)n1Cc1ccc(-c2ccccc2-c2nn[nH]n2)cc1 (stereo not given in full)
55 | CCCCc1nc2ccc([C@@]3(C)C[C@H]4CCCN4O3)cc2c(=O)n1Cc1ccc(-c2ccccc2-c2nn[nH]n2)cc1
140 | CCCCc1nc2ccc(C3(C)CC(C(=O)OCC)=NO3)cc2c(=O)n1Cc1ccc(-c2ccccc2-c2nn[nH]n2)cc1 (stereo not given)
57 | CCCCc1nc2ccc([C@]3(C(=O)N(C)C)C[C@H]4CCCN4O3)cc2c(=O)n1Cc1ccc(-c2ccccc2-c2nnn[nH]2)cc1
56 | CCCCc1nc2ccc([C@]3(c4ccccc4)C[C@H]4CCCN4O3)cc2c(=O)n1Cc1ccc(-c2ccccc2-c2nnn[nH]2)cc1
180 | CCCCc1nc2ccc(C3CC(c4cc(C)co4)=NO3)cc2c(=O)n1Cc1ccc(-c2ccccc2-c2nnn[nH]2)cc1 (stereo not given)
69 | CCCCc1nc2ccc([C@H]3ON4CCCC4C3C(=O)OCC)cc2c(=O)n1Cc1ccc(-c2ccccc2-c2nn[nH]n2)cc1 (stereo not given in full)
65 | CCCCc1nc2ccc([C@]3(C)C[C@H]4CCC(C)(C)N4O3)cc2c(=O)n1Cc1ccc(-c2ccccc2-c2nnn[nH]2)cc1
58 | CCCCc1nc2ccc([C@@]3(CC)C[C@H]4CCCN4O3)cc2c(=O)n1Cc1ccc(-c2ccccc2-c2nnn[nH]2)cc1
39 | CCCCc1nc2ccc([C@@H]3C[C@H]4CCC(C)(C)N4O3)cc2c(=O)n1Cc1ccc(-c2ccccc2-c2nnn[nH]2)cc1
35 | CCCCc1nc2ccc([C@]3(CO)C[C@H]4CCCN4O3)cc2c(=O)n1Cc1ccc(-c2ccccc2-c2nnn[nH]2)cc1
65 | CCCCc1nc2ccc([C@@H]3C[C@@]4(C)CCCCN4O3)cc2c(=O)n1Cc1ccc(-c2ccccc2-c2nn[nH]n2)cc1
27 | CCCCc1nc2ccc([C@]3(C)C[C@H]4CCCN4O3)cc2c(=O)n1Cc1ccc(-c2ccccc2-c2nn[nH]n2)cc1
83 | CCCCc1nc2ccc([C@]3(CC)C[C@H]4CCCN4O3)cc2c(=O)n1Cc1ccc(-c2ccccc2-c2nnn[nH]2)cc1
32 | CCCCc1nc2ccc([C@@H]3C[C@H]4CCCN4O3)cc2c(=O)n1Cc1ccc(-c2ccccc2-c2nnn[nH]2)cc1
500 | CCCCc1nc2ccc(C3CC(C(=O)O)=NO3)cc2c(=O)n1Cc1ccc(-c2ccccc2-c2nn[nH]n2)cc1 (stereo not given)
31 | CCCCc1nc2ccc(C(C)(C)OC)cc2c(=O)n1Cc1ccc(-c2ccccc2-c2nn[nH]n2)cc1 [CL-329167]
330 | CCCCc1nc(Cl)c(CO)n1Cc1ccc(-c2ccccc2-c2nnn[nH]2)cc1 [LOSARTAN]

SMILES | IC50 [nM]
CCCCc1nc2ccc([C@]3(C(=O)OC)C[C@H]4CCCN4O3)cc2c(=O)n1Cc1ccc(-c2ccccc2-c2nnn[nH]2)cc1 | 79
CCCCc1nc2ccc([C@]3(C(=O)O)C[C@H]4CCCN4O3)cc2c(=O)n1Cc1ccc(-c2ccccc2-c2nnn[nH]2)cc1 | 46

The molecules below were run on Rattus norvegicus (assay: Percent inhibition of AII vasopressor response in SHR at 5 mg/kg of oral dose after 5 hr in hypertensive rats). Conditions: not given.
Format: functional

SMILES | inhibition in vivo at 5 mg/kg [%]
CCCCc1nc(Cl)c(CO)n1Cc1ccc(-c2ccccc2-c2nnn[nH]2)cc1 [LOSARTAN] | 50

What follows are molecules tested against T2, Angiotensin II receptor (Rattus norvegicus, UniProt P29089+P25095+P35351) (assay: In vitro Angiotensin II receptor antagonist activity in rat adrenal cortex tissue.). Conditions: not given.
T2 sequence (P29089 whole entry): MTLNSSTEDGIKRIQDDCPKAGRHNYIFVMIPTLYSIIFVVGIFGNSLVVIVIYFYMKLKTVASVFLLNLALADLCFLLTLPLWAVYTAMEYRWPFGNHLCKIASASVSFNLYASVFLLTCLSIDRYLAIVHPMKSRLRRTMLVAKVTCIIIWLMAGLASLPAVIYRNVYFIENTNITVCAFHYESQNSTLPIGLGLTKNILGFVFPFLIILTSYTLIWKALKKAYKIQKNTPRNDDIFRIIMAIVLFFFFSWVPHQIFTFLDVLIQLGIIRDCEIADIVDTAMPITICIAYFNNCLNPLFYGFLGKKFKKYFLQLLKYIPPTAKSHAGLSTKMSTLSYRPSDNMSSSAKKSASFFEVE
T2 sequence (P25095 whole entry): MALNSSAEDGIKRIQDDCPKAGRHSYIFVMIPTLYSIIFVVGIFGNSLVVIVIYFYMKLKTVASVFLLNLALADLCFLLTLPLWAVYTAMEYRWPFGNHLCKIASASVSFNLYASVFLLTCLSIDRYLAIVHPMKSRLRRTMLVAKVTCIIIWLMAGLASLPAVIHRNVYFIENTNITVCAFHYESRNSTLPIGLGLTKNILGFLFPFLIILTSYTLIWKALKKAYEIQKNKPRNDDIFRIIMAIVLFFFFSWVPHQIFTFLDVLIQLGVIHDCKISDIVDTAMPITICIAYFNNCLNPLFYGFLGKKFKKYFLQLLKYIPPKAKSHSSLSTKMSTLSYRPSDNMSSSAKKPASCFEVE
T2 sequence (P35351 whole entry): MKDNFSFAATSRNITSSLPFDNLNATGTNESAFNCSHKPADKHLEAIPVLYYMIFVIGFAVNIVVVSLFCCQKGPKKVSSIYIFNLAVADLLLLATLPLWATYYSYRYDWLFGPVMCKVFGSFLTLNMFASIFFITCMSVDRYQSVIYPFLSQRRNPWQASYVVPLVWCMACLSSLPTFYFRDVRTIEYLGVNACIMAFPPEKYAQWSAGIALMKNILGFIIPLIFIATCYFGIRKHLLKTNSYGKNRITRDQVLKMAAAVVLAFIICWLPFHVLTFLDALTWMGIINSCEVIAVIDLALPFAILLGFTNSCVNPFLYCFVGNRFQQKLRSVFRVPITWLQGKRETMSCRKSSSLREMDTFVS
Format: functional, tissue-based

IC50 [nM] | SMILES
11 | CCCCc1nc2ccc(C3CCCO3)cc2c(=O)n1Cc1ccc(-c2ccccc2-c2nn[nH]n2)cc1 (stereo not given)
5 | CCCCc1nc2ccc(C3C=CCO3)cc2c(=O)n1Cc1ccc(-c2ccccc2-c2nn[nH]n2)cc1 (stereo not given)
47 | CCCCc1nc2ccc(-c3ccco3)cc2c(=O)n1Cc1ccc(-c2ccccc2-c2nn[nH]n2)cc1
44 | CCCCc1nc2ccc(-c3cccs3)cc2c(=O)n1Cc1ccc(-c2ccccc2-c2nn[nH]n2)cc1
